The target in assay [1] is T1, cGMP-specific 3',5'-cyclic phosphodiesterase (Homo sapiens, UniProt O76074).
Assay [2] concerns the target T1, cGMP-specific 3',5'-cyclic phosphodiesterase. In words: Inhibition of human phosphodiesterase 5 at 100 nM.
Assay [3] concerns the target Phosphodiesterase, PDE1/PDE5 (Homo sapiens) (UniProt O76074+P54750+Q01064+Q14123). As to the kind of experiment: Realtive inhibition of PDE1 and PDE5. The class given is protein assay.
Assay [4] deals with Phosphodiesterase 3 and 5 (PDE3 and PDE5) (Homo sapiens) (UniProt O76074+Q14432+Q13370). In words: Relative inhibition of PDE3 and PDE5. In kind it is protein assay.
The target in assay [5] is Phosphodiesterase 2 and 5 (PDE2 and PDE5) (Homo sapiens) (UniProt O76074+O00408). In words: Relative inhibition of PDE2 and PDE5. The class given is protein assay.
The target of assay [6] is Phosphodiesterase 4 and 5 (PDE4 and PDE5) (Homo sapiens) (UniProt O76074+P27815+Q08499+Q07343+Q08493). In words: Relative inhibition of PDE4 and PDE5. The class given is protein assay.

`CCN1C(=O)c2c(nc(Cc3ccccc3)n2Cc2ccccc2)N2C1=N[C@@H]1CCC[C@@H]12` registered a half-inhibitory concentration (IC50) in assay [1] of 130 nM. With `CCN1C(=O)c2c(nc(Cc3ccccc3)n2Cc2ccc(N)cc2)N2C1=N[C@@H]1CCC[C@@H]12`, the IC50 in assay [1] is 550 nM. As for `CCN1C(=O)c2c(nc(C(N)=O)n2Cc2ccc(OC)c(Cl)c2)N2C[C@@H](Cc3ccccc3)N=C12`, the IC50 in assay [1] amounted to 2.8 nM. The same measure, in the same setting: the figure for `CCN1C(=O)c2c(nc(N)n2Cc2ccc(O)cc2)N2C1=N[C@@H]1CCC[C@@H]12` is 22 nM. Consider `CCN1C(=O)c2c(nc(OC)n2Cc2ccc(OC)c(Br)c2)N2C1=N[C@@H]1CCC[C@@H]12`, for which the IC50 in assay [1] was 2.8 nM. Still for that read-out and setting: the figure for `CCN1C(=O)c2c(nc(C(N)=O)n2Cc2ccc(OC)c(Br)c2)N2C1=N[C@@H]1CCC[C@@H]12` is 1.5 nM. For `CCN1C(=O)c2c(nc(Cc3ccccc3)n2Cc2cccc(Cl)c2)N2C1=N[C@@H]1CCC[C@@H]12`, in assay [2], the inhibition was determined as 26%.

Regarding `CCN1C(=O)c2c(nc(Cc3ccccc3)n2Cc2ccc(C)c(Cl)c2)N2C1=N[C@@H]1CCC[C@@H]12`, in assay [2], the inhibition amounted to 27%.

Consider `CCN1C(=O)c2c(nc(N(C)C)n2Cc2ccc(OC)cc2)N2C1=N[C@@H]1CCC[C@@H]12`, for which the inhibition in assay [2] stood at 27%. `CCN1C(=O)c2c(nc(C(=O)NC)n2Cc2ccc(OC)c(Cl)c2)N2C1=N[C@@H]1CCC[C@@H]12`: half-maximal inhibition in assay [1] (IC50) required 2.3 nM. `CCN1C(=O)c2c(nc(C(N)=O)n2Cc2ccc(O)c(Cl)c2)N2C1=N[C@@H]1CCC[C@@H]12`: the IC50 in assay [1] worked out at 1.1 nM.

In turn, `CCN1C(=O)c2c(nc(C(=O)NC)n2Cc2ccc(O)c(Cl)c2)N2C1=N[C@@H]1CCC[C@@H]12` registered an IC50 in assay [1] of 1.3 nM. Compound `CCN1C(=O)c2c(nc(OC)n2Cc2ccc(OC)c(Cl)c2)N2C1=N[C@@H]1CCC[C@@H]12` gave a 50% inhibitory concentration (IC50) in assay [1] of 5 nM. In assay [1], `CCN1C(=O)c2[nH]c(Cc3ccccc3)nc2N2C1=N[C@@H]1CCC[C@@H]12` registered a half-inhibitory concentration (IC50) of 39 nM. This IC50 is about 7.8-fold higher than that of the compound before. For `CCN1C(=O)c2c(nc(C(F)(F)F)n2Cc2ccc(O)cc2)N2C1=N[C@@H]1CCC[C@@H]12`, the concentration for half-maximal inhibition (IC50) in assay [1] came to 7 nM. As to `CCN1C(=O)c2c(nc(C#Cc3ccccc3)n2Cc2ccc(O)cc2)N2C1=N[C@@H]1CCC[C@@H]12`, the concentration for half-maximal inhibition (IC50) in assay [1] is 0.3 nM. For the compound `CCN1C(=O)c2c(nc(OC)n2Cc2ccc(OC)c(C#N)c2)N2C[C@@H](Cc3ccccc3)N=C12`, the half-inhibitory concentration (IC50) in assay [1] amounted to 11 nM. The Selectivity is 536 in assay [3], 909 in assay [4], 909 in assay [5] and 464 in assay [6]. Compound `CCN1C(=O)c2c(nc(S(=O)(=O)CC)n2Cc2ccc(OC)cc2)N2C1=N[C@@H]1CCC[C@@H]12` yielded an inhibition in assay [2] of 31%. The compound `CCN1C(=O)c2c(nc(Cc3ccccc3)n2Cc2ccc(Cl)cc2)N2C1=N[C@@H]1CCC[C@@H]12` had an IC50 in assay [1] of 160 nM.

Take `CCN1C(=O)c2c(nc(OC)n2Cc2ccc(O)c(Cl)c2)N2C1=N[C@@H]1CCC[C@@H]12`: half-maximal inhibition in assay [1] (IC50) required 2 nM. Regarding `CCN1C(=O)c2c(nc(Cc3ccccc3)n2Cc2ccc3ccccc3c2)N2C1=N[C@@H]1CCC[C@@H]12`, the inhibition in assay [2] is 32%. `CCN1C(=O)c2c(nc(C#Cc3ccccc3)n2Cc2ccc(OC)cc2)N2C1=N[C@@H]1CCC[C@@H]12` came in with an IC50 in assay [1] of 3.1 nM. For `CCN1C(=O)c2c(nc(Cc3ccccc3)n2Cc2ccc([N+](=O)[O-])cc2)N2C1=N[C@@H]1CCC[C@@H]12`, the inhibition in assay [2] turned out to be 8%. `CCOc1nc2c(n1Cc1ccc(O)c(Cl)c1)C(=O)N(CC)C1=N[C@@H]3CCC[C@@H]3N12`: in assay [1], the midpoint of inhibition, the IC50, lay at 2.1 nM. In other words, the single-digit nanomolar range. `CCN1C(=O)c2c(nc(N=[N+]=[N-])n2Cc2ccc(O)cc2)N2C1=N[C@@H]1CCC[C@@H]12` gave an IC50 in assay [1] of 0.61 nM. Regarding `CCOc1nc2c(n1Cc1ccc(OC)c(Cl)c1)C(=O)N(CC)C1=N[C@@H]3CCC[C@@H]3N12`, the IC50 in assay [1] is 6.5 nM. Compared with the last compound, the IC50 is about 11-fold higher. In assay [1], `CCN1C(=O)c2c(nc(Cc3ccccc3)n2Cc2ccc3c(c2)OCO3)N2C1=N[C@@H]1CCC[C@@H]12` registered an IC50 of 46 nM. As to `CCN1C(=O)c2c(nc(Cc3ccccc3)n2Cc2ccc(C)cc2)N2C1=N[C@@H]1CCC[C@@H]12`, in assay [1], the IC50 stood at 40 nM. With `CCOc1nc2c(n1Cc1ccc(O)cc1)C(=O)N(CC)C1=N[C@@H]3CCC[C@@H]3N12`, in assay [1], it took 0.9 nM to reach half-maximal inhibition (IC50). Against the preceding compound, the IC50 is about 44-fold lower. With `CCN1C(=O)c2c(nc(C(N)=O)n2Cc2ccc(OC)cc2)N2C1=N[C@@H]1CCC[C@@H]12`, in assay [1], the 50% inhibitory concentration (IC50) was determined as 4 nM. Still for that read-out and setting: the figure for `CCN1C(=O)c2c(nc(C(N)=O)n2Cc2ccc(O)c(Br)c2)N2C1=N[C@@H]1CCC[C@@H]12` is 0.9 nM.

`CCN1C(=O)c2c(nc(Cc3ccccc3)n2Cc2cccc(C)c2)N2C1=N[C@@H]1CCC[C@@H]12` had an inhibition in assay [2] of 26%. In assay [1], `CCN1C(=O)c2c(nc(OC)n2Cc2ccc(O)c(C#N)c2)N2C[C@@H](Cc3ccccc3)N=C12` gave an IC50 of 43 nM. Consider `CCN1C(=O)c2c(nc(C(=O)OC)n2Cc2ccc(OC)cc2)N2C1=N[C@@H]1CCC[C@@H]12`, for which the IC50 in assay [1] stood at 6.8 nM. This IC50 is about 6.3-fold lower than that of the compound before. In assay [1], `CCN1C(=O)c2c(ncn2Cc2ccc(OC)c(Br)c2)N2C1=N[C@@H]1CCC[C@@H]12` came in with an IC50 of 6.5 nM. As for `CCSc1nc2c(n1Cc1ccc(OC)cc1)C(=O)N(CC)C1=N[C@@H]3CCC[C@@H]3N12`, 13 nM corresponded to half-maximal inhibition in assay [1] (IC50).

`CCN1C(=O)c2c(nc(OC)n2Cc2ccc(OC)c(Br)c2)N2C[C@@H](Cc3ccccc3)N=C12`: in assay [1], it took 2.2 nM to reach half-maximal inhibition (IC50). Besides, the Selectivity in assay [3] came out at 4090; in assay [4], 4540; in assay [5], 4540; in assay [6] it was 418. `CCN1C(=O)c2c(nc(Cc3ccccc3)n2Cc2ccc(OC)cc2)N2C1=N[C@@H]1CCC[C@@H]12` registered an IC50 in assay [1] of 20 nM. This counts as double-digit nanomolar.

`CCN1C(=O)c2c(nc(OCc3ccccc3)n2Cc2ccc(O)c(Cl)c2)N2C[C@@H](Cc3ccccc3)N=C12` registered a half-maximal inhibitory concentration (IC50) in assay [1] of 2.1 nM. Besides, the Selectivity in assay [3] turned out to be 4760; in assay [4] it was 4760; in assay [5] it was 4760; in assay [6], 2170.

For `CCN1C(=O)c2c(nc(OC)n2Cc2ccc(OC)c(Cl)c2)N2C[C@@H](Cc3ccccc3)N=C12`, the midpoint of inhibition in assay [1], the IC50, lay at 1.6 nM. Moreover, the Selectivity in assay [3] was 4380; in assay [4] it was 6250; in assay [5] it was 6250; in assay [6], 394. With `CCN1C(=O)c2c(nc(C(N)=O)n2Cc2ccc(O)c(Cl)c2)N2C[C@@H](Cc3ccccc3)N=C12`, inhibition in assay [1] was half-maximal at 3 nM (IC50). In addition, the Selectivity in assay [3] turned out to be 2600; in assay [4], 3330; in assay [5], 3330; in assay [6], 1730. In assay [1], `CCN1C(=O)c2c(nc(C#Cc3ccccc3)n2Cc2ccc(Cl)cc2)N2C1=N[C@@H]1CCC[C@@H]12` gave a 50% inhibitory concentration (IC50) of 5 nM. Turning to `CCN1C(=O)c2c(nc(Cc3ccccc3)n2Cc2cccc(OC)c2)N2C1=N[C@@H]1CCC[C@@H]12`, the inhibition in assay [2] is 14%.

Consider `CCN1C(=O)c2c(ncn2Cc2ccc(OC)cc2)N2C1=N[C@@H]1CCC[C@@H]12`, for which 55 nM corresponded to half-maximal inhibition in assay [1] (IC50). In turn, `CCOc1nc2c(n1Cc1ccc(OC)cc1)C(=O)N(CC)C1=N[C@@H]3CCC[C@@H]3N12` gave a half-maximal inhibitory concentration (IC50) in assay [1] of 18 nM. Still for that read-out and setting: under `CCOc1nc2c(n1Cc1ccc(OC)c(Br)c1)C(=O)N(CC)C1=N[C@@H]3CCC[C@@H]3N12` stands 5.4 nM. Regarding `CCN1C(=O)c2c(nc(Cc3ccccc3)n2Cc2cccc(Br)c2)N2C1=N[C@@H]1CCC[C@@H]12`, the inhibition in assay [2] turned out to be 33%. The compound `CCN1C(=O)c2c(nc(OC)n2Cc2ccc(O)c(Br)c2)N2C[C@@H](Cc3ccccc3)N=C12` yielded an IC50 in assay [1] of 1.3 nM. In addition, the Selectivity in assay [3] is 7690; in assay [4], 7690; in assay [5] it was 7690; in assay [6] it was 3770. `CCN1C(=O)c2c(nc(Cc3ccccc3)n2Cc2ccccc2C)N2C1=N[C@@H]1CCC[C@@H]12`: the inhibition in assay [2] stood at 18%.

As for `CCN1C(=O)c2c(nc(C(N)=O)n2Cc2ccc(O)cc2)N2C1=N[C@@H]1CCC[C@@H]12`, the half-inhibitory concentration (IC50) in assay [1] came to 2.1 nM.

In turn, `CCN1C(=O)c2c(nc(Cc3ccccc3)n2Cc2ccc(OC)c(Cl)c2)N2C1=N[C@@H]1CCC[C@@H]12` had an IC50 in assay [1] of 58 nM. This IC50 lies about 28-fold higher than the previous one.

The compound `CCN1C(=O)c2c(nc(C(F)(F)F)n2Cc2ccc(OC)cc2)N2C1=N[C@@H]1CCC[C@@H]12` came in with an IC50 in assay [1] of 48 nM. This IC50 and that of the compound before are within 1.5-fold of each other. Take `CCN1C(=O)c2c(nc(C#Cc3ccccc3)n2Cc2ccccc2)N2C1=N[C@@H]1CCC[C@@H]12`: half-maximal inhibition in assay [1] (IC50) required 8 nM.

`CCSc1nc2c(n1Cc1ccc(O)cc1)C(=O)N(CC)C1=N[C@@H]3CCC[C@@H]3N12` had a half-maximal inhibitory concentration (IC50) in assay [1] of 1.8 nM. This IC50 is about 4.4-fold lower than that of the compound before. Turning to `CCN1C(=O)c2c(ncn2Cc2ccc(O)c(Br)c2)N2C1=N[C@@H]1CCC[C@@H]12`, the half-inhibitory concentration (IC50) in assay [1] was found to be 6.3 nM. Consider `CCN1C(=O)c2c(nc(OC)n2Cc2ccc(O)c(Br)c2)N2C1=N[C@@H]1CCC[C@@H]12`, for which, in assay [1], the midpoint of inhibition, the IC50, lay at 1.6 nM. As for `CCN1C(=O)c2c(nc(C#N)n2Cc2ccc(OC)cc2)N2C1=N[C@@H]1CCC[C@@H]12`, the half-maximal inhibitory concentration (IC50) in assay [1] was 6.3 nM.

One may read the IC50 as the concentration that gives 50% inhibition. Higher therefore signals lower potency. What is called inhibition is the drop in the measured response relative to a control, in per cent.

Source of the values: ChEMBL document CHEMBL1147608, “SAR development of polycyclic guanine derivatives targeted to the discovery of a selective PDE5 inhibitor for treatment of erectile dysfunction” (Bioorg Med Chem Lett, 2004).
